Laboratory results reported in patent publication US8143025B2, “Antibodies against vascular endothelial growth factor receptor-1” (ImClone LLC, priority 2004, dated 2012).

Columns and labels:
mouse VEGFR-I-AP = target: T1, mouse VEGFR-I-AP (Mus musculus, UniProt P35969); experiment: Plate-bound receptor binding ELISA (Example 2B); settings: FIG. 32B, 100 ng/well
T1 sequence (P35969 23-759 limits assumed): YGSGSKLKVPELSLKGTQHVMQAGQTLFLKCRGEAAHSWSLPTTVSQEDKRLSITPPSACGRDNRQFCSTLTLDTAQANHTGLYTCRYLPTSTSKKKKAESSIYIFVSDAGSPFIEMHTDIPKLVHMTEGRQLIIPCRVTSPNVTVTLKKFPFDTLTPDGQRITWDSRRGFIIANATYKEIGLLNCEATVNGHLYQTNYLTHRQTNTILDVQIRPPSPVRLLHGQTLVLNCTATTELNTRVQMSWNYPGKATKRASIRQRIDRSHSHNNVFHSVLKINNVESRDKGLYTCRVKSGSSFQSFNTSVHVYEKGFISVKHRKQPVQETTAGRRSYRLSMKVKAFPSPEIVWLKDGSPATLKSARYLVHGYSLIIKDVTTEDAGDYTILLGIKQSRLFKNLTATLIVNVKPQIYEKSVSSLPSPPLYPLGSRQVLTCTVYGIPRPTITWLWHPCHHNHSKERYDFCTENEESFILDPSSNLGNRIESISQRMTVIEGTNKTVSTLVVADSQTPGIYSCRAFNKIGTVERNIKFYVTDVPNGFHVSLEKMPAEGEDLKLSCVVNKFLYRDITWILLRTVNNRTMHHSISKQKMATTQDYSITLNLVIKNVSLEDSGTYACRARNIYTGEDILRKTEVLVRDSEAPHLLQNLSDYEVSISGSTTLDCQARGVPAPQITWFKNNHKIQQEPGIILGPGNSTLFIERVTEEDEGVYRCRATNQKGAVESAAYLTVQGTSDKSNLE
Method: (§1) HuVEGFR-I-Fc, mouse VEGFR-I-AP (hnClone Systems) or huVEGFR-2-AP (ImClone Systems) (100 ng/well) was coated on 96 strip-well plates and blocked with 5% milk/PBS. The binding of 18F1 and other anti-human VEGFR-I antibodies or a rat anti-mouse VEGFR-I antibody, MF1 (ImClone Systems, ref. 18), to plate bound VEGFR-I or VEGFR-2 was evaluated as described for the hybridoma supernatant screening above, except that bound antibody was detected with a goat anti-human kappa-HRP antibody (Bio Source International, Camarillo, Calif.) for 18F1 and anti-human VEGFR-2 antibody ICl 1. or a goat anti-rat IgG-HRP antibody (BioSource International) for MF1.

HuVEGFR-I-Fc = target: T2, HuVEGFR-I-Fc (Homo sapiens, UniProt P17948); experiment: Plate-bound receptor binding ELISA (Example 2B); settings: FIG. 32A, 100 ng/well
T2 construct: soluble recombinant VEGFR-I Fc (rhuVEGFR-1 Fc) proteins were purchased from (R&D Systems Inc); purchased R&D Systems Inc
T2 sequence (P17948 27-758 limits assumed): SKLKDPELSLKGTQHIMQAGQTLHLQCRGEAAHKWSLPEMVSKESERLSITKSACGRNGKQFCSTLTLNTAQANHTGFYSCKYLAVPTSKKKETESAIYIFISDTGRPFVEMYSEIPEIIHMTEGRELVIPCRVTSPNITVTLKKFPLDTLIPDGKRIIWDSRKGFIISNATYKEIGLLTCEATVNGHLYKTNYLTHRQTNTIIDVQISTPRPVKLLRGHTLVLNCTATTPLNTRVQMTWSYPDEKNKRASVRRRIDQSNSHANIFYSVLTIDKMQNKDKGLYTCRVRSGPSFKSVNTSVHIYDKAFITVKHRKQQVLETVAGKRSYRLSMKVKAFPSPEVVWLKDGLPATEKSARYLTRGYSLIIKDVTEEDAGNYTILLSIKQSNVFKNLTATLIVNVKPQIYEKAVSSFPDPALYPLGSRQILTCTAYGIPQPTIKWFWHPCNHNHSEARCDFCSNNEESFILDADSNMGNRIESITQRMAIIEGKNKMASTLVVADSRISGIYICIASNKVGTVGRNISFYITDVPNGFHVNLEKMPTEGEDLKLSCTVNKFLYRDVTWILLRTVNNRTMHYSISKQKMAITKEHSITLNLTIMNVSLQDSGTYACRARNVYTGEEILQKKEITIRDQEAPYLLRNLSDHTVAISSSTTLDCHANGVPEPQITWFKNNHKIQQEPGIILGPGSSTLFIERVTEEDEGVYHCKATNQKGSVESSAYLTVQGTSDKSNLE
Method: as §1

huVEGFR-2-AP = huVEGFR-2-AP (Homo sapiens, UniProt P35968); experiment: Plate-bound receptor binding ELISA (Example 2B); settings: FIG. 32C, 100 ng/well
Chain of huVEGFR-2-AP (P35968 20-764 limits assumed): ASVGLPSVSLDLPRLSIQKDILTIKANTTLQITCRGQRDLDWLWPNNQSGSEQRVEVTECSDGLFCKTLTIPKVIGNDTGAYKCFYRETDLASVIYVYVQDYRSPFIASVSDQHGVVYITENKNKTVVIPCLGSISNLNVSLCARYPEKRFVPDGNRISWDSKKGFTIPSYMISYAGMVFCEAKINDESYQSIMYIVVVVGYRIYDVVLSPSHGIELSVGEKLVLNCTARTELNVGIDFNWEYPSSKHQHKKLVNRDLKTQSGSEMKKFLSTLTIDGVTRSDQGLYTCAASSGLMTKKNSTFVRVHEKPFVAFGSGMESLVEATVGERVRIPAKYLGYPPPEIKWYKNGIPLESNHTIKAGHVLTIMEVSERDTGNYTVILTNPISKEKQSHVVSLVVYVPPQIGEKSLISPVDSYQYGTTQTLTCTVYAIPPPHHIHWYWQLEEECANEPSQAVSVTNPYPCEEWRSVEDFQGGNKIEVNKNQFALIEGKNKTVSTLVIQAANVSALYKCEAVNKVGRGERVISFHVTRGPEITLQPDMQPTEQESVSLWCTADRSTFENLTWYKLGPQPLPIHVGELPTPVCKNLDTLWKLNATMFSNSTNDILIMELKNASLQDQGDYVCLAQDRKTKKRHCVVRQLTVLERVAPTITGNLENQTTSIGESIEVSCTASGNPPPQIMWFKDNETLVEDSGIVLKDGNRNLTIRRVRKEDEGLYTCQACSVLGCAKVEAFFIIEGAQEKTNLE
Method: as §1

DU4475 xenograft = experiment: DU4475 breast tumor xenograft; assay type: in vivo, mouse
Method: Athymic nude mice (Charles River Laboratories, Wilmington, Mass.) were injected subcutaneously in the left flank area with 2×10^6 of DU4475 cells or 5×10^6 of MDA-MB-231 and MDA-MB-435 cells mixed in Matrigel (Collaborative Research Biochemicals. Bedford, Mass.). In the DU4475 and MDA-MB-231 models, tumors were allowed to reach approximately 200 mm^3 in size and then mice were randomized into groups of 12-16 animals per group. Animals received i.p. administration of the anti-VEGFR-I antibody clones 6F9, 15F11, or 18F1 at a dose of 0.5 mg (MDA-MB-231) or 1 mg (DU4475) three times each week. In the MDA-MB-435 model, the tumor cells were implanted subcutaneously into mammary fat pad area in the mouse. After tumors grew to reach approximately 200 mm^3 in size, mice were randomized into groups of 15 animals per group and intraperitoneally administered with 0.5 mg per dose of 18F1 antibody three times each week. Mice in control groups received an equal volume of saline solution. Treatment of animals was continued for the duration of the experiment. Tumors were measured twice each week with calipers. Tumor volumes were calculated using the formula [π/6 (w1×w2×w2)], where “w1” represents the largest tumor diameter and “w2” represents the smallest tumor diameter. Female athymic nu/nu mice, 6-8 weeks of age, were injected subcutaneously on the lateral dorsal surface with 0.4 mL volume of a suspension containing a human tumor cell line in media, diluted 1:1 with MATRIGEL™ (BD Biosciences). The cell lines used in xenograft models, with the cell doses indicated in parenthesis (10^6 cells/mouse), were: human colon carcinoma cell lines DLD-I (5), GEO (5) and HT-29 (5); human breast carcinoma cell lines DU4475 (2), MDA-MB-231 (5), MDA-MB-435 (5), and BT474 (5). When tumors reached approximately 200-300 mm^3, mice were randomized by tumor size and divided into treatment groups. Tumor growth was evaluated approximately twice weekly, with tumor volume calculated as π/6* (Length*Width^2), where Length=longest diameter and Width=diameter perpendicular to Length. Tumor dimensions were measured with calipers. T/C % was calculated as 100*(Final Treatment Tumor Volume/Initial Treatment Tumor Volume)/(Final Control Tumor Volume/Initial Control Tumor Volume). 18F1 was diluted in 0.9% USP saline (Braun) or phosphate buffered saline (PBS) and administered intraperitoneally in a volume of 0.5 mL per mouse. The effect of treatment on tumor growth was analyzed using repeated measures analysis of variance (RM ANOVA), p<0.05 was considered significant. 18F1 was used in combination with an antibody to mouse VEGFR-I, MF1. […] AU treatments were administered i.p. The effect of treatments on tumor growth were analyzed using repeated measures analysis of variance (RM ANOVA), p<0.05 was considered significant.

How did the “reactivity with mouse VEGFR-I” value (mouse VEGFR-I-AP) turn out when “18F1: human anti-VEGFR-1 monoclonal antibody clone; VL SEQ ID NO: 16, VH SEQ ID NO: 20 [Clone 18F1]” was run?
The value was “no cross reactivity”.

And the “reactivity with human VEGFR-I” value (HuVEGFR-I-Fc)?
Its value is “specific reactivity”.

What about the “reactivity with human VEGFR-2” value (huVEGFR-2-AP) of the same substance?
The value was “no cross reactivity”.

And the “tumor growth of the DU4475 xenograft” value (DU4475 xenograft; 1 mg per dose three times each week i.p., p<0.05, FIGS. 19A-B)?
Its value is “statistically significant suppression”.

And the “tumor growth of the DU4475 xenograft” value (DU4475 xenograft; 0.5 or 1 mg per dose three times each week, ANOVA p<0.05, FIG. 20A)?
The value was “statistically significant suppression”.

What about the “growth of DU4475 xenograft tumors” value (DU4475 xenograft; Example 9, intraperitoneal, p<0.05, FIG. 25A) of the same substance?
Its value is “significantly (p<0.05) suppressed”.

What about the “tumor growth inhibition, DU4475 xenograft” value (DU4475 xenograft; Example 11, p<0.05, FIG. 28B) of the same substance?
Its value is “significant tumor growth inhibition”.
